In experiment [1] the target is recombinant human kappa (KOR) opioid receptor (Homo sapiens (Human), UniProt P41145). As to the kind of experiment: biochemical. The format is binding. Conditions: HEK293 cell membranes, 0.5 nM [3H]diprenorphine.
Experiment [2] deals with recombinant human mu (MOR) opioid receptor (Homo sapiens (Human), UniProt P35372). Briefly: Opioid receptor radioligand binding assay, MOR.
Experiment [3] addresses recombinant human delta (DOR) opioid receptor (Homo sapiens (Human), UniProt P41143). As to the kind of experiment: Opioid receptor radioligand binding assay, DOR.
The target of experiment [4] is Opioid Kappa Receptor (recombinant human, HEK293 cells) (Homo sapiens (Human), UniProt P41145). As to the kind of experiment: cell-based. The conditions noted are these: read-out: EC50.
Setting [5] is: HEK293 cell membranes, 0.5 nM [3H]DAMGO, read-out: MOR, IC50.
Setting [6] is: HEK293 cell membranes, 0.5 nM [3H]DADLE, read-out: DOR, IC50.

Read-outs that look alike come from different tables or passages of the source.

Sequence of recombinant human delta (DOR) opioid receptor (P41143 whole entry, looked up): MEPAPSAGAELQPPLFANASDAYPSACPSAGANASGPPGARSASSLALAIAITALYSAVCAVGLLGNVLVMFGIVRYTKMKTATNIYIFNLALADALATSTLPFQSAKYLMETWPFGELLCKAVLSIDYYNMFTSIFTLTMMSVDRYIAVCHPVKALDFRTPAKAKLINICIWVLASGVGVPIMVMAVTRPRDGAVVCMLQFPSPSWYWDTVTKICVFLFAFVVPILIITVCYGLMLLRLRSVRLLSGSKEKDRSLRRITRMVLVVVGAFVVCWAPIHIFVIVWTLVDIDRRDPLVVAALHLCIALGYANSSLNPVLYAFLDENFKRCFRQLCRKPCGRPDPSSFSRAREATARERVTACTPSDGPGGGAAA

For the molecule `CCOC(=O)C1(N)CCN(C(=O)[C@@H](CCCCN)NC(=O)[C@@H](CC(C)C)NC(=O)[C@@H](Cc2ccccc2)NC(=O)[C@H](N)Cc2ccccc2)C1` (stereo partly drawn) [Compound 35], the IC50 in experiment [1] is 0.00019 µM; in experiment [2], 8.18 µM; in experiment [3], over 10 µM. For the same molecule, the concentration giving a half-maximal response (EC50) in experiment [4] turned out to be 0.0117 µM.

Take `COC(=O)/C=C/C(=O)N1CCN(C(=O)[C@@H](CCCCN)NC(=O)[C@@H](CC(C)C)NC(=O)[C@@H](Cc2ccccc2)NC(=O)[C@H](N)Cc2ccccc2)CC1` [Compound 13-24]: the IC50 in experiment [1] is 0.00052 µM; in experiment [2] (setting [5]) it was 7.99 µM; in experiment [3] (setting [6]), over 10 µM. Also, the concentration for a half-maximal effect (EC50) in experiment [4] worked out at 0.0315 µM.

On to `CCNC(=O)N1CCN(C(=O)[C@@H](CCCCN)NC(=O)[C@@H](CC(C)C)NC(=O)[C@@H](Cc2ccccc2)NC(=O)[C@H](N)Cc2ccccc2)CC1` [Compound 13-64], for which the IC50 is 0.00047 µM in experiment [1], over 10 µM in experiment [2] (setting [5]) and over 10 µM in experiment [3] (setting [6]). Besides, the EC50 in experiment [4] was determined as 0.00291 µM.

Regarding `CC(C)C[C@@H](NC(=O)[C@@H](Cc1ccccc1)NC(=O)[C@H](N)Cc1ccccc1)C(=O)N[C@H](CCCCN)C(=O)N1CCC(N)(C(=O)OCCN)C1` (stereo partly drawn) [Compound 55], the IC50 in experiment [1] was 0.00045 µM; in experiment [2] (setting [5]), 8.53 µM; in experiment [3] (setting [6]), over 10 µM. For the same molecule, in experiment [4], the concentration for a half-maximal effect (EC50) was 0.00936 µM.

On to `COCCNC(=O)[C@@H](CCCCN)NC(=O)[C@@H](CC(C)C)NC(=O)[C@@H](Cc1ccccc1)NC(=O)[C@H](N)Cc1ccccc1` [Compound 13-2], for which the IC50 is 0.00137 µM in experiment [1], over 10 µM in experiment [2] (setting [5]) and over 10 µM in experiment [3] (setting [6]). In addition, the concentration for a half-maximal effect (EC50) in experiment [4] is 0.00831 µM.

With `CNCCOC(=O)C1(N)CCN(C(=O)[C@@H](CCCCN)NC(=O)[C@@H](CC(C)C)NC(=O)[C@@H](Cc2ccccc2)NC(=O)[C@H](N)Cc2ccccc2)C1` (stereo partly drawn) [Compound 60], the results for the IC50 in experiment [1], in experiment [2] (setting [5]) and in experiment [3] (setting [6]) were 0.00094 µM, over 10 µM and over 10 µM, respectively. In addition, the EC50 in experiment [4] is 0.00719 µM.

`CCOC(=O)C(=O)NC1CCN(C(=O)[C@@H](CCCCN)NC(=O)[C@@H](CC(C)C)NC(=O)[C@@H](Cc2ccccc2)NC(=O)[C@H](N)Cc2ccccc2)CC1` [Compound 13-31]: the IC50 in experiment [1] is 0.00028 µM; in experiment [2] (setting [5]) it was 0.172 µM; in experiment [3] (setting [6]), over 10 µM. In addition, the EC50 in experiment [4] was 0.0179 µM.

In the case of `CC(C)C[C@@H](NC(=O)[C@@H](Cc1ccccc1)NC(=O)[C@H](N)Cc1ccccc1)C(=O)N[C@H](CCCCN)C(=O)N1CCC(NC(=O)C(=O)O)CC1` [Compound 13-30], the concentration for half-maximal inhibition (IC50) in experiment [1] is 0.00015 µM; in experiment [2] (setting [5]), over 10 µM; in experiment [3] (setting [6]), over 10 µM. The EC50 in experiment [4] was 0.00477 µM.

As to `CC(C)C[C@@H](NC(=O)[C@@H](Cc1ccccc1)NC(=O)[C@H](N)Cc1ccccc1)C(=O)N[C@H](CCCCN)C(=O)N1CCC2(CC1)NC(=O)NC2=O` [Compound 71], the 50% inhibitory concentration (IC50) in experiment [1] is 0.00016 µM; in experiment [2] (read-out: MOR, IC50) it was over 10 µM; in experiment [3] (setting [6]) it was over 10 µM. Moreover, the EC50 in experiment [4] is 0.0054 µM.

Regarding `CC(C)C[C@@H](NC(=O)[C@@H](Cc1ccccc1)NC(=O)[C@H](N)Cc1ccccc1)C(=O)N[C@H](CCCCN)C(=O)N1CCC(NC(=O)/C=C\C(=O)NC(N)=O)CC1` [Compound 13-54], the 50% inhibitory concentration (IC50) in experiment [1] was 0.00021 µM; in experiment [2] it was 1.53 µM; in experiment [3], over 10 µM. In addition, in experiment [4], the EC50 was 0.0151 µM.

Regarding `CNC(=O)NC1CCN(C(=O)[C@@H](CCCCN)NC(=O)[C@@H](CC(C)C)NC(=O)[C@@H](Cc2ccccc2)NC(=O)[C@H](N)Cc2ccccc2)CC1` [Compound 13-60], the results for the IC50 in experiment [1], in experiment [2] and in experiment [3] were 0.00042 µM, over 10 µM and over 10 µM, respectively. In addition, the concentration giving a half-maximal response (EC50) in experiment [4] was 0.0143 µM.

For `CC(C)C[C@@H](NC(=O)[C@@H](Cc1ccccc1)NC(=O)[C@H](N)Cc1ccccc1)C(=O)N[C@H](CCCCN)C(=O)N1CCC(NC(=O)C(=O)N(C)C)CC1` [Compound 13-16], the IC50 turned out to be 0.00037 µM in experiment [1], 0.215 µM in experiment [2] (setting [5]) and 2.41 µM in experiment [3] (setting [6]). The EC50 in experiment [4] came to 0.0194 µM.

The IC50 is the concentration that inhibits the measured activity by half. As usually defined, the EC50 is the concentration at which the effect is half-maximal.

The values above are taken from patent US12215173B2, “Kappa opioid receptor peptide amide ligands” (priority 2019, dated 2025).
